Laboratory results from ChEMBL document CHEMBL5584308, “Total Synthesis and Anti-inflammatory Activity of Asperjinone and Asperimide C” (J Nat Prod, 2024).
Active and inactive are the calls of the source. No cut-off for these calls is given here.

Columns and labels:
[1] = system: RPTEC; test: Antiinflammatory activity in LPS-induced human RPTEC cells assessed as downregulation of TNFalpha gene expression at 26 uM incubated for 24 hrs by qPCR analysis relative to control; type: functional
[2] = system: RPTEC; test: Effect on iNOS gene expression in human RPTEC cells at 26 uM incubated for 24 hrs by qPCR analysis; type: functional, cell-based
[3] = system: RPTEC; test: Antiinflammatory activity against LPS-induced human RPTEC cells assessed as reduction in COX-2 gene expression at 26 uM incubated for 24 hrs by qPCR analysis relative to control; type: functional; set-up: scale not given: the % may be the effect or the level left
[4] = system: RPTEC; test: Antiinflammatory activity in LPS-induced human RPTEC cells assessed as decrease in IL-1beta gene expression at 26 uM incubated for 24 hrs by qPCR analysis relative to control; type: functional; set-up: scale not given: the % may be the effect or the level left
[5] = system: RPTEC; test: Upregulation of IL-1beta gene expression in human RPTEC cells at 26 uM incubated for 24 hrs by qPCR analysis; type: functional, cell-based
[6] = system: RPTEC; test: Effect on nitrite level in human RPTEC cells at 26 uM incubated for 24 hrs by microplate reader analysis; type: functional, cell-based
[7] = system: RPTEC; test: Upregulation of IL-6 gene expression in human RPTEC cells at 26 uM incubated for 24 hrs by qPCR analysis; type: functional, cell-based
[8] = system: RPTEC; test: Effect on total NO level in human RPTEC cells at 26 uM incubated for 24 hrs by microplate reader analysis; type: functional, cell-based
[9] = system: RPTEC; test: Cytotoxicity against human RPTEC cells assessed as reduction in cell viability at 26 uM incubated for 24 hrs in presence of LPS by MTT assay; type: toxicity, cell-based
[10] = system: RPTEC; test: Antiinflammatory activity against LPS-induced human RPTEC cells assessed as reduction in total NO level at 26 uM incubated for 24 hrs by microplate reader analysis relative to control; type: functional; set-up: scale not given: the % may be the effect or the level left
[11] = system: RPTEC; test: Effect on nitrate level in human RPTEC cells at 26 uM incubated for 24 hrs by microplate reader analysis; type: functional, cell-based
[12] = system: RPTEC; test: Antiinflammatory activity against LPS-induced human RPTEC cells assessed as reduction in iNOS gene expression at 26 uM incubated for 24 hrs by qPCR analysis relative to control; type: functional; set-up: scale not given: the % may be the effect or the level left
[13] = system: RPTEC; test: Effect on nitrate level in LPS-induced human RPTEC cells at 26 uM incubated for 24 hrs by microplate reader analysis; type: functional, cell-based
[14] = system: RPTEC; test: Antiinflammatory activity against LPS-induced human RPTEC cells assessed as reduction in nitrite level at 26 uM incubated for 24 hrs by microplate reader analysis relative to control; type: functional; set-up: scale not given: the % may be the effect or the level left
[15] = system: RPTEC; test: Antiinflammatory activity in LPS-induced human RPTEC cells assessed as decrease in IL6 gene expression at 26 uM incubated for 24 hrs by qPCR analysis relative to control; type: functional; set-up: scale not given: the % may be the effect or the level left
[16] = system: RPTEC; test: Cytotoxicity against human RPTEC cells assessed as reduction in cell viability at 26 uM incubated for 24 hrs in absence of LPS by MTT assay; type: toxicity, cell-based
[17] = system: RPTEC; test: Upregulation of COX-2 gene expression in human RPTEC cells at 26 uM incubated for 24 hrs by qPCR analysis; type: functional, cell-based
[18] = system: RPTEC; test: Effect on IL-1beta gene expression in human RPTEC cells at 26 uM incubated for 24 hrs by qPCR analysis; type: functional, cell-based
[19] = system: RAW264.7; test: Inhibition of NO production in LPS-induced mouse RAW264.7 cells incubated for 24 hrs by absorbance based assay; type: functional, cell-based; conditions: RAW264.7, 24 h
[20] = system: RPTEC; test: Effect on COX-2 gene expression in human RPTEC cells at 26 uM incubated for 24 hrs by qPCR analysis; type: functional, cell-based
[21] = system: RPTEC; test: Effect on IL-6 gene expression in human RPTEC cells at 26 uM incubated for 24 hrs by qPCR analysis; type: functional, cell-based
[22] = Downregulation of TNF-alpha gene expression in human RPTEC cells at 26 uM incubated for 24 hrs by qPCR analysis relative to control; type: functional
[23] = Downregulation of COX-2 gene expression in human RPTEC cells at 26 uM incubated for 24 hrs by qPCR analysis relative to control; type: functional
[24] = Downregulation of IL-1beta gene expression in human RPTEC cells at 26 uM incubated for 24 hrs by qPCR analysis relative to control; type: functional
[25] = system: RPTEC; test: Effect on nitrate level in LPS-induced human RPTEC cells at 28 uM incubated for 24 hrs by microplate reader analysis; type: functional, cell-based
[26] = system: RPTEC; test: Effect on COX-2 gene expression in human RPTEC cells at 28 uM incubated for 24 hrs by qPCR analysis; type: functional, cell-based
[27] = system: RPTEC; test: Antiinflammatory activity against LPS-induced human RPTEC cells assessed as reduction in iNOS gene expression at 28 uM incubated for 24 hrs by qPCR analysis relative to control; type: functional; set-up: scale not given: the % may be the effect or the level left
[28] = system: RPTEC; test: Antiinflammatory activity in LPS-induced human RPTEC cells assessed as downregulation of TNFalpha gene expression at 28 uM incubated for 24 hrs by qPCR analysis relative to control; type: functional
[29] = system: RPTEC; test: Antiinflammatory activity in LPS-induced human RPTEC cells assessed as decrease in IL6 gene expression at 28 uM incubated for 24 hrs by qPCR analysis relative to control; type: functional; set-up: scale not given: the % may be the effect or the level left
[30] = system: RPTEC; test: Antiinflammatory activity against LPS-induced human RPTEC cells assessed as reduction in COX-2 gene expression at 28 uM incubated for 24 hrs by qPCR analysis relative to control; type: functional; set-up: scale not given: the % may be the effect or the level left
[31] = Downregulation of TNF-alpha gene expression in human RPTEC cells at 28 uM incubated for 24 hrs by qPCR analysis relative to control; type: functional
[32] = system: RPTEC; test: Antiinflammatory activity against LPS-induced human RPTEC cells assessed as reduction in nitrite level at 28 uM incubated for 24 hrs by microplate reader analysis relative to control; type: functional; set-up: scale not given: the % may be the effect or the level left
[33] = system: RPTEC; test: Antiinflammatory activity in LPS-induced human RPTEC cells assessed as decrease in IL-1beta gene expression at 28 uM incubated for 24 hrs by qPCR analysis relative to control; type: functional; set-up: scale not given: the % may be the effect or the level left

| IC50 [19] [µM] | SMILES | Activity [1] [%] | Activity [2] | Activity [3] [%] | Activity [4] [%] | Activity [6] | Activity [8] | Activity [9] | Activity [10] [%] | Activity [11] | Activity [12] [%] | Activity [13] | Activity [14] [%] | Activity [15] [%] | Activity [16] | Activity [18] | Activity [20] | Activity [21] | also measured |
| --- | --- | --- | --- | --- | --- | --- | --- | --- | --- | --- | --- | --- | --- | --- | --- | --- | --- | --- | --- |
| – | CC1(C)Oc2ccc(CC3=C(c4ccc(O)cc4)C(=O)NC3=O)cc2CC1O (racemic) | 44 | inactive | 53 | 52 | inactive | inactive | Non-Toxic | ~37 | inactive | 57 | inactive | 45 | 44 | Non-Toxic | – | – | – | Activity [5]: Active; Activity [7]: Active; Activity [17]: Active |
| 0.78 | CC1(C)Oc2ccc(CC3=C(c4ccc(O)cc4)C(=O)NC3=O)cc2C[C@@H]1O | 58 | inactive | 52 | 52 | inactive | inactive | Non-Toxic | ~18 | inactive | 52 | inactive | 24 | 39 | Non-Toxic | inactive | inactive | inactive | – |
| – | CC1(C)Oc2ccc(CC3=C(c4ccc(O)cc4)C(=O)OC3=O)cc2C[C@@H]1O | 57 | inactive | 49 | 52 | inactive | inactive | Non-Toxic | ~33 | inactive | 47 | inactive | 45 | 48 | Non-Toxic | inactive | inactive | inactive | – |
| – | CC1(C)Oc2ccc(CC3=C(c4ccc(O)cc4)C(=O)OC3=O)cc2CC1O (stereo not given) | 67 | inactive | 61 | 61 | inactive | inactive | Non-Toxic | ~35 | inactive | 67 | inactive | 45 | 55 | Non-Toxic | – | – | inactive | Activity [22]: ~38%; Activity [23]: ~20%; Activity [24]: 24% |
| 37.5 | COc1ccc2c(c1)c(CC(=O)O)c(C)n2C(=O)c1ccc(Cl)cc1 [INDOMETHACIN] | – | – | – | – | – | – | – | – | – | – | – | – | – | – | – | – | – | Activity [25]: inactive; Activity [26]: inactive; Activity [27]: 59%; Activity [28]: 64%; Activity [29]: 57%; Activity [30]: 61%; Activity [31]: ~38%; Activity [32]: 45%; Activity [33]: 56% |
